Read-outs that look alike come from different tables or passages of the source.

The target in test [1] is T1, His-GST-TVMV-hRIPK1(1-324) (Homo sapiens, UniProt Q13546).
T1 construct: The coding region of human RIPK1(1-324) flanked by NdeI site at 5′ end; made in house; host or cells: Spodoptera frugiperda (Sf9) insect cells, baculovirus
T1 sequence (Q13546 1-324): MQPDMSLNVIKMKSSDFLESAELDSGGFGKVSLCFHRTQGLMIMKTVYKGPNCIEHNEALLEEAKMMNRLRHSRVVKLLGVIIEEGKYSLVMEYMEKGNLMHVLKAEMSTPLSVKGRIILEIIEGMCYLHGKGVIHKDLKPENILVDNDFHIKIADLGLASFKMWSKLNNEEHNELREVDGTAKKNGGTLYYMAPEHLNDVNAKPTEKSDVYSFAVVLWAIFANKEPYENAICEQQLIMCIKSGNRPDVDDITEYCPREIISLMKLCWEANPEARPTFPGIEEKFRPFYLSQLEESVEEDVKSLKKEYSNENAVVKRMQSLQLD
Put plainly: RIPK1 HTRF Binding Assay.

Test [2] concerns MLKL phosphorylation in HT29-L23 human colorectal adenocarcinoma cells. Put plainly: MLKL Phosphorylation High-Content Assay. The test is classed as cell-based. Conditions: Homo sapiens. An outline of the steps: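 Cells incubated six hours at 37° C., then phospho-MLKL (S358) immunostained overnight at 4° C. and imaged by high-content microscopy. Phosphorylation quantified as mean circ-ring average intensity ratio; IC50 and Ymax from 4-parameter logistic fits.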

Where [3] appears, read: x marks IC50 class 20-200 nM, read-out: RIPK1 HTRF binding 20-200 nM.
Setting [4] is: x marks IC50 class >200 nM, read-out: pMLKL cell activity >200 nM.
Where [5] appears, read: x marks IC50 class 20-200 nM, read-out: pMLKL cell activity 20-200 nM.
Setting [6] is: x marks IC50 class <20 nM, read-out: RIPK1 HTRF binding <20 nM.
Where [7] appears, read: x marks IC50 class <20 nM, read-out: pMLKL cell activity <20 nM.

Turning to `COc1ncc(-c2ccn3nc(N)nc3c2)cc1NC(=O)Cc1ccccc1OC(F)(F)F` [Example 417, N-(5-(2-amino-[1,2,4]triazolo[1,5-a]pyridin-7-yl)-2-methoxypyridin-3-yl)-2-(2-(trifluoromethoxy)phenyl)acetamide], the IC50 in test [1] (setting [3]) was 20 to 200 nM; in test [2] (setting [4]), more than 200 nM.

As for `Cc1cnc(C(=O)NCc2cc(OC(F)(F)F)ccc2F)cc1-c1ccn2nc(N)nc2c1` [Example 399, 4-(2-amino-[1,2,4]triazolo[1,5-a]pyridin-7-yl)-N-(2-fluoro-5-(trifluoromethoxy)benzyl)-5-methylpicolinamide], the IC50 in test [1] (setting [3]) and in test [2] (setting [5]) was 20 to 200 nM each time.

For `[2H]C([2H])([2H])[C@@H](NC(=O)c1nc(-c2ccn3nc(N)nc3c2)cnc1OC)c1cc(OC(F)(F)F)ccc1F` [Example 383, (R)-6-(2-amino-[1,2,4]triazolo[1,5-a]pyridin-7-yl)-N-(1-(2-fluoro-5-(trifluoromethoxy)phenyl)ethyl-2,2,2-d3)-3-methoxypyrazine-2-carboxamide], the IC50 in test [1] (setting [6]) was less than 20 nM; in test [2] (setting [4]), more than 200 nM.

Turning to `COc1ncc(-c2ccn3nc(N)nc3c2)cc1C(=O)N1CCC[C@@H](Cc2cccc(F)c2)C1` [Example 114, 7-{5-[(3S)-3-[(3-fluorophenyl)methyl]piperidine-1-carbonyl]-6-methoxypyridin-3-yl}-[1,2,4]triazolo[1,5-a]pyridin-2-amine], the IC50 in test [1] (setting [6]) and in test [2] (setting [7]) was less than 20 nM in each case.

With `CCOc1ncc(-c2ccn3nc(N)nc3c2)cc1C(=O)NCc1cc(F)cc(F)c1OCC1CC1` [Example 281, 5-{2-amino-[1,2,4]triazolo[1,5-a]pyridin-7-yl}-N-{[2-(cyclopropylmethoxy)-3,5-difluorophenyl]methyl}-2-ethoxypyridine-3-carboxamide], the IC50 in test [1] (setting [6]) is less than 20 nM; in test [2] (setting [5]) it was 20 to 200 nM.

As to `Cc1ccc(-c2ccn3nc(N)nc3c2)nc1C(=O)NCC[C@@H](O)c1ccc(Cl)cc1` [Example 402, (R)-6-(2-amino-[1,2,4]triazolo[1,5-a]pyridin-7-yl)-N-(3-(4-chlorophenyl)-3-hydroxypropyl)-3-methylpicolinamide], the IC50 in test [1] (setting [3]) and in test [2] (setting [5]) was 20 to 200 nM in each case.

`CCc1ncc(-c2ccn3nc(N)nc3c2)cc1C(=O)NCc1cc(OC(F)(F)F)ccc1F` [Example 86, 5-{2-amino-[1,2,4]triazolo[1,5-a]pyridin-7-yl}-2-ethyl-N-{[2-fluoro-5-(trifluoromethoxy)phenyl]methyl}pyridine-3-carboxamide]: the IC50 is less than 20 nM in test [1] (setting [6]) and 20 to 200 nM in test [2] (setting [5]).

As to `Cc1ncc(-c2ccn3nc(N)nc3c2)cc1C(=O)NCc1cc(F)cc(F)c1OCC1CCCC1` [Example 232], the IC50 is less than 20 nM in test [1] (setting [6]) and 20 to 200 nM in test [2] (setting [5]).

Take `Cc1nc(C)c(-c2ccn3nc(N)nc3c2)cc1C(=O)NCc1cccc(OCC(F)(F)F)c1` [Example 293, 5-(2-amino-[1,2,4]triazolo[1,5-a]pyridin-7-yl)-2,6-dimethyl-N-(3-(2,2,2-trifluoroethoxy)benzyl)nicotinamide]: the IC50 in test [1] (setting [3]) and in test [2] (setting [5]) was 20 to 200 nM throughout.

With `C[C@@H](NC(=O)c1cnc(Cl)c(-c2ccn3nc(N)nc3c2)c1)c1ccccc1OC(F)(F)F` [Example 370, (R)-5-(2-amino-[1,2,4]triazolo[1,5-a]pyridin-7-yl)-6-chloro-N-(1-(2-(trifluoromethoxy)phenyl)ethyl)nicotinamide], the values for the IC50 in test [1] (setting [6]) and in test [2] (setting [5]) were less than 20 nM and 20 to 200 nM, respectively.

In the case of `COc1nc(C)c(-c2ccn3nc(N)nc3c2)cc1C(=O)NCc1cc(F)cc(F)c1C(=O)N1CCC(F)(F)C1` [Example 380, 5-(2-amino-[1,2,4]triazolo[1,5-a]pyridin-7-yl)-N-(2-(3,3-difluoropyrrolidine-1-carbonyl)-3,5-difluorobenzyl)-2-methoxy-6-methylnicotinamide], the IC50 in test [1] (setting [6]) and in test [2] (setting [7]) was less than 20 nM in each case.

For the compound `Cc1ncc(-c2ccn3nc(N)nc3c2)cc1C(=O)NCc1cccc(OCC2CC2)c1` [Example 243, 5-{2-amino-[1,2,4]triazolo[1,5-a]pyridin-7-yl}-N-{[3-(cyclopropylmethoxy)phenyl]methyl}-2-methylpyridine-3-carboxamide], the figures for the IC50 in test [1] (setting [3]) and in test [2] (setting [4]) were 20 to 200 nM and more than 200 nM, respectively.

For `CCc1ncc(-c2ccn3nc(N)nc3c2)cc1C(=O)N[C@H](C)c1cc(OC(F)(F)F)ccc1F` [Example 320, (R)-5-(2-amino-[1,2,4]triazolo[1,5-a]pyridin-7-yl)-2-ethyl-N-(1-(2-fluoro-5-(trifluoromethoxy)phenyl)ethyl)nicotinamide], the IC50 is 20 to 200 nM in test [1] (setting [3]) and less than 20 nM in test [2] (setting [7]).

For the compound `COc1ncc(-c2ccn3nc(N)nc3c2)cc1C(=O)NCc1ccccc1OC(C)C1CCCC1` (centres unmarked) [Example 125, 5-{2-amino-[1,2,4]triazolo[1,5-a]pyridin-7-yl}-N-{[2-(1-cyclopentylethoxy)phenyl]methyl}-2-methoxypyridine-3-carboxamide], the IC50 is less than 20 nM in test [1] (setting [6]) and 20 to 200 nM in test [2] (setting [5]).

For the compound `Cc1ccc(-c2ccn3nc(N)nc3c2)nc1C(=O)NCCC(C)c1ccccc1` (centres unmarked) [Example 404, 6-(2-amino-[1,2,4]triazolo[1,5-a]pyridin-7-yl)-3-methyl-N-(3-phenylbutyl)picolinamide], the IC50 in test [1] (setting [3]) and in test [2] (setting [5]) was 20 to 200 nM each time.

Consider `Cc1nc(C)c(-c2ccn3nc(N)nc3c2)cc1C(=O)NCc1ncccc1OCC1CCCC1` [Example 182, 5-{2-amino-[1,2,4]triazolo[1,5-a]pyridin-7-yl}-N-{[3-(cyclopentylmethoxy)pyridin-2-yl]methyl}-2,6-dimethylpyridine-3-carboxamide], for which the IC50 is less than 20 nM in test [1] (setting [6]) and 20 to 200 nM in test [2] (setting [5]).

On to `COc1ncc(-c2ccn3nc(N)nc3c2)cc1C(=O)N1CCCC(C(=O)Cc2ccccc2)C1` (centres unmarked) [Example 427, 1-(1-(5-(2-amino-[1,2,4]triazolo[1,5-a]pyridin-7-yl)-2-methoxynicotinoyl)piperidin-3-yl)-2-phenylethan-1-one], for which the IC50 in test [1] (setting [3]) and in test [2] (setting [5]) was 20 to 200 nM each time.

Take `Cc1ncc(-c2ccn3nc(N)nc3c2)cc1C(=O)NCc1cc(F)cc(F)c1OC1CCOC1` (centres unmarked) [Example 317, 5-(2-amino-[1,2,4]triazolo[1,5-a]pyridin-7-yl)-N-(3,5-difluoro-2-((tetrahydrofuran-3-yl)oxy)benzyl)-2-methylnicotinamide]: the IC50 in test [1] (setting [3]) is 20 to 200 nM; in test [2] (setting [4]), more than 200 nM.

For `Cc1ncc(-c2ccn3nc(N)nc3c2)cc1C(=O)NCc1ncccc1OC1CCCC1` [Example 241, 5-{2-amino-[1,2,4]triazolo[1,5-a]pyridin-7-yl}-N-{[3-(cyclopentyloxy)pyridin-2-yl]methyl}-2-methylpyridine-3-carboxamide], the IC50 was less than 20 nM in test [1] (setting [6]) and 20 to 200 nM in test [2] (setting [5]).

`COc1nc(C)c(-c2ccn3nc(N)nc3c2)cc1C(=O)NCc1ccccc1OCC1CC(F)(F)C1` [Example 4, 5-{2-Amino-[1,2,4]triazolo[1,5-a]pyridin-7-yl}-N-({2-[(3,3-difluorocyclobutyl)methoxy]phenyl}methyl)-2-methoxy-6-methylpyridine-3-carboxamide]: the IC50 was less than 20 nM in test [1] (setting [6]) and 20 to 200 nM in test [2] (setting [5]).

Take `CCOc1ncc(-c2ccn3nc(N)nc3c2)cc1C(=O)NCc1ccccc1Sc1ccccc1CO` [Example 275, 5-{2-amino-[1,2,4]triazolo[1,5-a]pyridin-7-yl}-2-ethoxy-N-[(2-{[2-(hydroxymethyl)phenyl]sulfanyl}phenyl)methyl]pyridine-3-carboxamide]: the IC50 in test [1] (setting [6]) and in test [2] (setting [7]) was less than 20 nM each time.

With `COc1nc(C)c(-c2ccn3nc(N)nc3c2)cc1C(=O)NCc1cc(F)cc(F)c1OC1CC(C)OC(C)C1` (centres unmarked) [Example 353, 5-(2-amino-[1,2,4]triazolo[1,5-a]pyridin-7-yl)-N-(2-((2,6-dimethyltetrahydro-2H-pyran-4-yl)oxy)-3,5-difluorobenzyl)-2-methoxy-6-methylnicotinamide], the IC50 is less than 20 nM in test [1] (setting [6]) and 20 to 200 nM in test [2] (setting [5]).

In the case of `COc1ncc(-c2ccn3nc(N)nc3c2)cc1C(=O)Nc1cnn(C(C)c2ccc(F)cc2)c1` (single isomer, unassigned) [Example 76-1], the IC50 in test [1] (setting [6]) and in test [2] (setting [7]) was less than 20 nM each time.

With `Cc1ncc(-c2ccn3nc(N)nc3c2)cc1C(=O)NCc1cccnc1OCC1CCCC1` [Example 231, 5-{2-amino-[1,2,4]triazolo[1,5-a]pyridin-7-yl}-N-{[2-(cyclopentylmethoxy)pyridin-3-yl]methyl}-2-methylpyridine-3-carboxamide], the IC50 in test [1] (setting [3]) was 20 to 200 nM; in test [2] (setting [4]), more than 200 nM.

For the compound `COc1nc(C)c(-c2ccn3nc(N)nc3c2)cc1C(=O)NCc1cc(OC(F)(F)F)ccc1F` [Example 201, 5-{2-amino-[1,2,4]triazolo[1,5-a]pyridin-7-yl}-N-{[2-fluoro-5-(trifluoromethoxy)phenyl]methyl}-2-methoxy-6-methylpyridine-3-carboxamide], the IC50 was less than 20 nM in test [1] (setting [6]) and 20 to 200 nM in test [2] (setting [5]).
